In patent US7709223B2, “Method for detecting bacteria with chromogenic substrates for β-D-ribofuranosidase” (priority 2001, dated 2010):
Structures can show the parent of a compound that is named as a salt.

Legend:
Format in all cases: cell-based
[1] = tested on: Aeromonas hydrophila; assay: Hydrolysis on Columbia agar with ferric ammonium citrate; set-up: key to the marks not given beside the values; conditions: Aeromonas hydrophila NCTC 8049
Description: (§1) The chromogenic β-D-ribofuranoside substrate was added to Columbia agar at a substrate concentration of 300 mg/l. Ferric ammonium citrate was included at 500 mg/l. All ingredients were autoclaved at 116° C. for 20 minutes to ensure sterilisation. Agar plates were then prepared in 90 mm petri dishes. The substrate caused a yellow colouration of the agar.
(§2) For each strain tested, a bacterial suspension was prepared in sterile deionised water at an inoculum of approximately 1.5×10^8 colony forming units per ml. This was achieved using a densitometer. 1 μl of each bacterial suspension was then inoculated onto each plate using a multipoint inoculator. Strains were inoculated in parallel onto Columbia agar containing ferric ammonium citrate with no substrate (negative control).
(§3) After 18 hours incubation, strains were examined visually for the presence of colour. Any strains producing a black colouration on substrate containing media but not on the negative control plates were deemed to be hydrolysing the substrate.

[2] = tested on: Aeromonas sobria; assay: as above; set-up: key to the marks not given beside the values; conditions: Aeromonas sobria NCTC 11215
Description: as §1, §2, §3

[3] = tested on: C. diversus; assay: as above; set-up: key to the marks not given beside the values
Description: as §1, §2, §3

[4] = tested on: E. coli 0157; assay: as above; set-up: key to the marks not given beside the values
Description: as §1, §2, §3

[5] = tested on: Hafnia alvei; assay: as above; set-up: key to the marks not given beside the values
Description: as §1, §2, §3

[6] = tested on: K. oxytoca; assay: as above; set-up: key to the marks not given beside the values
Description: as §1, §2, §3

[7] = tested on: Salmonella alachia; assay: as above; set-up: key to the marks not given beside the values; conditions: Salmonella alachia SAX 60
Description: as §1, §2, §3

[8] = tested on: Salmonella hadar; assay: as above; set-up: key to the marks not given beside the values; conditions: Salmonella hadar SAX 57
Description: as §1, §2, §3

[9] = tested on: Salmonella motevideo; assay: as above; set-up: key to the marks not given beside the values; conditions: Salmonella motevideo SAX 55
Description: as §1, §2, §3

[10] = tested on: Salmonella oranienburg; assay: as above; set-up: key to the marks not given beside the values; conditions: Salmonella oranienburg SAX 56
Description: as §1, §2, §3

[11] = tested on: Salmonella panama; assay: as above; set-up: key to the marks not given beside the values; conditions: Salmonella panama SAX 58
Description: as §1, §2, §3

[12] = tested on: Salmonella typhi; assay: as above; set-up: key to the marks not given beside the values; conditions: Salmonella typhi NCTC 8385
Description: as §1, §2, §3

[13] = tested on: Serratia marcescens; assay: as above; set-up: key to the marks not given beside the values; conditions: Serratia marcescens NCTC 10211
Description: as §1, §2, §3

[14] = tested on: Serratia spp.; assay: as above; set-up: key to the marks not given beside the values
Description: as §1, §2, §3

[15] = tested on: Shigella boydii; assay: as above; set-up: key to the marks not given beside the values
Description: as §1, §2, §3

[16] = tested on: Shigella dysenteriae; assay: as above; set-up: key to the marks not given beside the values
Description: as §1, §2, §3

[17] = tested on: Shigella flexneri; assay: as above; set-up: key to the marks not given beside the values
Description: as §1, §2, §3

[18] = tested on: Staphylococcus aureus; assay: as above; set-up: key to the marks not given beside the values
Description: as §1, §2, §3

[19] = tested on: Staphylococcus saprophyticus; assay: as above; set-up: key to the marks not given beside the values
Description: as §1, §2, §3

[20] = tested on: Vibrio harveyi; assay: as above; set-up: key to the marks not given beside the values; conditions: Vibrio harveyi NCTC 11346
Description: as §1, §2, §3

[21] = tested on: E. coli; assay: as above; set-up: β-Riboside (hydrolysis): key to the marks not given beside the values
Description: as §1, §2, §3

[22] = tested on: Shigella sonnei; assay: as above; set-up: β-Riboside (hydrolysis): key to the marks not given beside the values
Description: as §1, §2, §3

[23] = tested on: Acinetobacter lwoffii; assay: Mixed culture on solid medium with substrate and ferric ion; conditions: mixed culture with Escherichia coli
Description: (§4) The limitations of using a substrate which generates a diffusible end product after hydrolysis on a solid medium are known by those skilled in the art. […] For example a culture plate was prepared containing solid medium and the chromogenic enzyme substrate 3′,4′-dihydroxyflavone-4′-β-D-ribofuranoside along with ferric ion. A culture containing roughly equal numbers of Escherichia coli (β-D-ribofuranosidase positive) and Acinetobacter lwoffii (β-D-ribofuranosidase negative) was grown on the medium. […] The A. lwoffii colonies were colourless. It was possible to differentiate the two species even when the colonies were virtually coincident.

[24] = tested on: Escherichia coli; assay: as above; conditions: mixed culture with Acinetobacter lwoffii
Description: as §4

Structure (SMILES): O=c1cc(-c2ccc(OC3OC(CO)C(O)C3O)c(O)c2)oc2ccccc12 [DHF-riboside, 3′,4′-Dihydroxyflavone-4′-β-D-ribofuranoside sodium salt]
- β-Riboside (hydrolysis) [1]: ++
- β-Riboside (hydrolysis) [2]: ++
- β-Riboside (hydrolysis) ([3]; C. diversus CDI 1): ++
- β-Riboside (hydrolysis) ([3]; C. diversus CDI 2): ++
- β-Riboside (hydrolysis) ([4]; E. coli 0157 NCTC 12079): ++
- β-Riboside (hydrolysis) ([4]; E. coli 0157 NCTC 12080): ++
- β-Riboside (hydrolysis) ([4]; E. coli 0157 NCTC 12900): ++
- β-Riboside (hydrolysis) ([4]; E. coli 0157 NCTC 13125): ++
- β-Riboside (hydrolysis) ([4]; E. coli 0157 NCTC 13126): ++
- β-Riboside (hydrolysis) ([4]; E. coli 0157 NCTC 13127): ++
- β-Riboside (hydrolysis) ([4]; E. coli 0157 NCTC 13128): ++
- β-Riboside (hydrolysis) ([5]; Hafnia alvei HAL 2): ++
- β-Riboside (hydrolysis) ([5]; Hafnia alvei NCTC 8105): ++
- β-Riboside (hydrolysis) ([6]; K. oxytoca KOX 1): ++
- β-Riboside (hydrolysis) ([6]; K. oxytoca KOX 2): ++
- β-Riboside (hydrolysis) [7]: ++
- β-Riboside (hydrolysis) [8]: ++
- β-Riboside (hydrolysis) [9]: ++
- β-Riboside (hydrolysis) [10]: ++
- β-Riboside (hydrolysis) [11]: ++
- β-Riboside (hydrolysis) [12]: ++
- β-Riboside (hydrolysis) [13]: ++
- β-Riboside (hydrolysis) ([14]; Serratia spp. SEX 1): ++
- β-Riboside (hydrolysis) ([14]; Serratia spp. SEX 2): ++
- β-Riboside (hydrolysis) ([14]; Serratia spp. SEX 3): ++
- β-Riboside (hydrolysis) ([14]; Serratia spp. SEX 4): ++
- β-Riboside (hydrolysis) ([15]; Shigella boydii NCTC 9327): ++
- β-Riboside (hydrolysis) ([15]; Shigella boydii NCTC 9732): ++
- β-Riboside (hydrolysis) ([15]; Shigella boydii NCTC 9850): ++
- β-Riboside (hydrolysis) ([16]; Shigella dysenteriae (type 2) NCTC 9952): ++
- β-Riboside (hydrolysis) ([16]; Shigella dysenteriae (type 3) NCTC 9720): ++
- β-Riboside (hydrolysis) ([16]; Shigella dysenteriae (type 4) NCTC 9759): ++
- β-Riboside (hydrolysis) ([17]; Shigella flexneri NCTC 8192): ++
- β-Riboside (hydrolysis) ([17]; Shigella flexneri NCTC 9723): ++
- β-Riboside (hydrolysis) ([17]; Shigella flexneri NCTC 9780): ++
- β-Ribofuranoside (hydrolysis) ([18]; Reference No. 1): ++
- β-Ribofuranoside (hydrolysis) ([18]; Reference No. 2): ++
- β-Ribofuranoside (hydrolysis) ([18]; Reference No. 3): ++
- β-Ribofuranoside (hydrolysis) ([18]; Reference No. 4): ++
- β-Ribofuranoside (hydrolysis) ([18]; Reference No. 5): ++
- β-Ribofuranoside (hydrolysis) ([19]; Reference No. 1): ++
- β-Ribofuranoside (hydrolysis) ([19]; Reference No. 2): ++
- β-Ribofuranoside (hydrolysis) ([19]; Reference No. 3): ++
- β-Ribofuranoside (hydrolysis) ([19]; Reference No. 4): ++
- β-Ribofuranoside (hydrolysis) ([19]; Reference No. 5): ++
- β-Riboside (hydrolysis) [20]: ++
- β-Riboside (hydrolysis) ([21]; E. coli ECO 2): ++
- β-Riboside (hydrolysis) ([21]; E. coli ECO 3): ++
- β-Riboside (hydrolysis) ([21]; E. coli ECO 4): ++
- β-Riboside (hydrolysis) ([21]; E. coli ECO 5): ++
- β-Riboside (hydrolysis) ([21]; E. coli ECO 6): ++
- β-Riboside (hydrolysis) ([21]; E. coli ECO 7): ++
- β-Riboside (hydrolysis) ([21]; E. coli ECO 8): ++
- β-Riboside (hydrolysis) ([21]; E. coli ECO 9): ++
- β-Riboside (hydrolysis) ([21]; E. coli ECO 10): ++
- β-Riboside (hydrolysis) ([21]; E. coli ECO 11): ++
- β-Riboside (hydrolysis) ([21]; E. coli ECO 12): ++
- β-Riboside (hydrolysis) ([21]; E. coli NCTC 10418): ++
- β-Riboside (hydrolysis) ([22]; Shigella sonnei NCTC 8219): ++
- β-Riboside (hydrolysis) ([22]; Shigella sonnei NCTC 8574): ++
- β-Riboside (hydrolysis) ([22]; Shigella sonnei NCTC 8586): ++
- β-Riboside (hydrolysis) ([22]; Shigella sonnei NCTC 9774): ++
- β-Riboside (hydrolysis) ([22]; Shigella sonnei NCTC 10352): ++
- Colour of A. lwoffii colonies [23]: colourless
- Colour of E. coli colonies [24]: intense black colonies
